SMILES strings stand for the structures. Bounds are passed on as bounds.

The results in this text go back to patent US20260215423A1, “NOVEL CARBOXAMIDE AND SULFONAMIDE PESTICIDAL COMPOUNDS” (SYNGENTA CROP PROTECTION AG, priority 2023, published 2026).

Common to all, as to type: in vivo
In assay [1] the test system is Myzus persicae (Green Peach Aphid). Description: Myzus persicae (Green Peach Aphid) Feeding/Contact Activity, eggplant leaf discs. As to conditions: foliar, 144 h, application rate of 200 ppm, eggplant leaf discs sprayed, aphid population of mixed ages, 6 days after infestation, read-out: growth inhibition. The text has this:
Example B8: Myzus persicae (Green Peach Aphid) Feeding/Contact Activity Eggplant leaf discs were placed onto agar in a 24-well microtiter plate and sprayed with aqueous test solutions prepared from 10′000 ppm DMSO stock solutions. After drying, the leaf discs were infested with an aphid population of mixed ages. […]

Assay [2] has the same test system. Description: Myzus persicae (Green Peach Aphid). Intrinsic Activity. The conditions noted are these: 120 h, test rate of 12 ppm, mixed with sucrose solution, feeding through Parafilm, 5 days after infestation. From the text:
Example B7: Myzus persicae (Green Peach Aphid). Intrinsic Activity
Test compounds prepared from 10′000 ppm DMSO stock solutions were applied by pipette into 24-well microtiter plates and mixed with sucrose solution. The plates were closed with a stretched Parafilm. A plastic stencil with 24 holes was placed onto the plate and infested pea seedlings were placed directly on the Parafilm. The infested plate was closed with a gel blotting paper and another plastic stencil and then turned upside down. The samples were assessed for mortality 5 days after infestation.

For assay [3], the system named is Plutella xylostella (Diamond back moth). The assay can be described thus: Plutella xylostella (Diamond back moth). As to conditions: 192 h, application rate of 200 ppm, artificial diet treated by pipetting, Plutella eggs, 8 days after infestation, read-out: effect in at least one of the two categories (mortality or growth inhibition). On the procedure: After drying, Plutella eggs were pipetted through a plastic stencil onto a gel blotting paper and the plate was closed with it. The samples were assessed for mortality and growth inhibition in comparison to untreated samples 8 days after infestation.

For assay [4], the system named is Diabrotica balteata (Corn root worm). Description: Diabrotica balteata (Corn root worm). As to conditions: 96 h, application rate of 200 ppm, maize sprouts sprayed, L2 larvae, 4 days after infestation, read-out: effect in at least one of the two categories (mortality or growth inhibition). The procedure: Example B2: Diabrotica balteata (Corn root worm)
Maize sprouts placed onto an agar layer in 24-well microtiter plates were treated with aqueous test solutions prepared from 10′000 ppm DMSO stock solutions by spraying. After drying, the plates were infested with L2 larvae (6 to 10 per well). The samples were assessed for mortality and growth inhibition in comparison to untreated samples 4 days after infestation.

For the compound `C[C@@H](COc1cnc(Cl)c(CNC(=O)C(F)(Cl)Cl)c1)NS(=O)(=O)C(F)(F)F` [P-29, 2,2-dichloro-N-[[2-chloro-5-[(2S)-2-(trifluoromethylsul-fonylamino)propoxy]-3-pyridyl]methyl]-2-fluoro-acetamide], in assay [1], the inhibition at 200 ppm is ≥ 80%. Take `C[C@@H](COc1cnc(Cl)c(CNC(=O)C(F)F)c1)NS(=O)(=O)C(F)(F)F` [P-32, N-[[2-chloro-5-[(2S)-2-(trifluoromethylsul-fonylamino)propoxy]-3-pyridyl]methyl]-2,2-difluoro-acetamide]: the mortality at 12 ppm in assay [2] is ≥ 80%. For the compound `C[C@@H](COc1cnc(Cl)c(CNC(=O)C2CC2)c1)NS(=O)(=O)C(F)(F)F` [P-9, N-[[2-chloro-5-[(2S)-2-(trifluoromethylsulfon-ylamino)propoxy]-3-pyridyl]methyl]cyclo-propanecarboxamide], the mortality at 12 ppm in assay [2] was ≥ 80%. In assay [3], the percent effect (mortality or growth inhibition) at 200 ppm was ≥ 80%.

As to `C[C@@H](COc1cnc(Cl)c(CNC(=O)CC2CC2)c1)NS(=O)(=O)C(F)(F)F` [P-21, N-[[2-chloro-5-[(2S)-2-(trifluoromethylsul-fonylamino)propoxy]-3-pyridyl]methyl]-2-cyclopropyl-acetamide], the mortality at 12 ppm in assay [2] was ≥ 80%. In addition, the inhibition at 200 ppm in assay [1] was ≥ 80%. `C[C@@H](COc1ccc(Cl)c(CNC(=O)C2CCC2)c1)N(C(=O)C1CCC1)S(=O)(=O)C(F)(F)F` [P-8]: in assay [2], the mortality at 12 ppm was ≥ 80%. The percent effect (mortality or growth inhibition) at 200 ppm in assay [3] was ≥ 80%.

As for `C[C@@H](COc1cnc(Cl)c(CNC(=O)C2CCCO2)c1)NS(=O)(=O)C(F)(F)F` (some centres unmarked) [P-27], the inhibition at 200 ppm in assay [1] was ≥ 80%. Regarding `C[C@@H](COc1ccc(Cl)c(CNC(=O)C2CCC2)c1)NS(=O)(=O)C(F)(F)F` [P-7], the mortality at 12 ppm in assay [2] is ≥ 80%. For the same compound, in assay [3], the percent effect (mortality or growth inhibition) at 200 ppm was ≥ 80%. In the case of `CCC(=O)NCc1cc(OC[C@H](C)NS(=O)(=O)c2cnc(Cl)c(Cl)c2)ccc1Cl` [P-13, N-[[2-chloro-5-[(2S)-2-[(5,6-dichloro-3-pyridyl)sulfonylamino]propoxy]phenyl]meth-yl]propanamide], the percent effect (mortality or growth inhibition) at 200 ppm in assay [4] and in assay [3] was ≥ 80% each time. Take `CCC(=O)NC1(c2cc(OC[C@H](C)NS(=O)(=O)C(F)(F)F)ccc2Cl)CC1` [P-14, N-[1-[2-chloro-5-[(2S)-2-(trifluoromethylsul-fonylamino)propoxy]phenyl]cyclopropyl] propanamide]: the percent effect (mortality or growth inhibition) at 200 ppm in assay [4] is ≥ 80%. Take `CCC(=O)NCc1cc(OC[C@H](C)NS(=O)(=O)C(F)F)ccc1Cl` [P-11]: in assay [2], the mortality at 12 ppm was ≥ 80%. For the same compound, the percent effect (mortality or growth inhibition) at 200 ppm in assay [3] is ≥ 80%.

As for `C[C@@H](COc1ccc(Cl)c(CNC(=O)C2CSC2)c1)NS(=O)(=O)C(F)(F)F` [P-6], the mortality at 12 ppm in assay [2] is ≥ 80%.

As to `CCC(=O)NCc1cc(OC[C@H](C)NS(=O)(=O)C(Cl)Cl)ccc1Cl` [P-10], the mortality at 12 ppm in assay [2] was ≥ 80%. Turning to `COCC(=O)NCc1cc(OC[C@H](C)N(C(=O)COC)S(=O)(=O)C(F)(F)F)ccc1Cl` [P-16, N-[[2-chloro-5-[(2S)-2-[(2-methoxyacetyl)-(trifluoromethylsulfon-yl)amino]propoxy]phenyl]methyl]-2-methoxy-acetamide], the mortality at 12 ppm in assay [2] was ≥ 80%. In assay [1], the inhibition at 200 ppm is ≥ 80%. Consider `CCC(=O)NCc1cc(OC[C@H](C)NS(=O)(=O)c2ccc(C#N)c(Cl)c2)ccc1Cl` [P-12, N-[[2-chloro-5-[(2S)-2-[(3-chloro-4-cyano-phenyl)sulfonylamino]propoxy]phenyl]meth-yl]propanamide], for which the percent effect (mortality or growth inhibition) at 200 ppm in assay [4] was ≥ 80%. Turning to `C[C@@H](COc1cnc(Cl)c(CNC(=O)C2(C#N)CC2)c1)NS(=O)(=O)C(F)(F)F` [P-23, N-[[2-chloro-5-[(2S)-2-(trifluoromethylsul-fonylamino)propoxy]-3-pyridyl]methyl]-1-cyano-cyclopropane-carboxamide], the inhibition at 200 ppm in assay [1] was ≥ 80%.

Regarding `C[C@@H](COc1cnc(Cl)c(CNC(=O)CC2CC2(Cl)Cl)c1)NS(=O)(=O)C(F)(F)F` (some centres unmarked) [P-30], the inhibition at 200 ppm in assay [1] is ≥ 80%.
